From patent publication US8304448B2, “Method for the treatment of metabolic disorder containing benzazole derivatives as an active ingredient” (Korea Research Institute of Bioscience and Biotechnology, priority 2006, dated 2012)

Tests used:
DGAT [1] = assay: Assay for inhibitory effect on DGAT in cell (intracellular triglyceride production from [14C]acetate in HepG2 cells); type: cell-based, human; conditions: for Production Yield of Triglyceride (%): final level 10 μM, DMSO control given as 100
Procedure: The effect of the benzazole derivatives of Chemical Formula 1 in accordance with the present invention on DGAT was examined with HepG2 cells, hepatic cells derived from the human liver, as follows.
HepG2 cells, purchased from ATCC, were cultured in Eagle's minimum essential medium (MEM), 2 mM L-glutamine, with Earle's balanced salt solution (BSS) adjusted to contain, 1.5 g/L sodium bicarbonate, 0.1 mM non-essential amino acids and 1 mM sodium pyruvate, supplemented with 10% fetal bovine serum (FBS) and 1% antibiotics (100 U/ml penicillin and 100 µg/ml streptomycin) at 37° C. in a 5% CO2 incubator.
Intracellular DGAT activity was represented by the amount of triglycerides produced in the cultured HepG2 cells while the compounds (4, 8, 10, 22, 24, 25, 26, 39 and 31) of Chemical Formula 1 were assayed for inhibitory activity against DGAT by measuring the change in intracellular triglyceride production after the addition thereof.
Cells were plated at a density of 1×10^6 cell/ml per well into 24-well plates and incubated for 24 hours. Then, the medium was exchanged with FBS-free MEM and pre-treated with samples for 1 hour. Thereafter, 0.2 mCi of [^14C]acetate (Amersham) was added as a substrate to the cells, followed by incubation for 1 hour. The production of triglyceride was catalyzed by DGAT so that DGAT activity was determined by the amount of the triglyceride product, which could be measured by radioactivity. For use, the samples were dissolved in dimethyl sulfoxide (DMSO). In a control, triglycerides were synthesized using DMSO without any sample, with the production yield thereof given as 100.
The amount of the glyceride products synthesized was determined as follows. After completion of synthesis, the cells were suspended in PBS (phosphate-buffer-saline) to remove the substrate [^14C]acetate, whether unabsorbed into the cells or remaining unreacted, and total lipids, including triglycerides, were extracted twice for 30 min with 0.5 ml of an extraction solvent mixture (hexane:isopropanol=3:2, v:v). 1 ml of the extract was concentrated with nitrogen gas.
The total lipid residue thus formed was dissolved in an organic solvent mixture (chloroform:methanol=2:1) and loaded dropwise onto a thin layer chromatography plate (TLC; silica gel 60F254, 0.5 mm, Merck) using a mixture of 80:20:1 hexane:diethylether:acetic acid (v:v:v) as a developing solvent. After the separation of triglycerides (Rf value: 0.4) on TLC, the plate was brought into contact with an autoradiographic film for three hours, followed by image analysis (BAS-1500, Fuji Photo Film Co. Ltd.) to determine the [^14C] radioactivity of the triglycerides. The cells left after the extraction were suspended in 0.3 ml of a 0.1 N sodium hydroxide solution to measure the cellular protein concentration thereof.
The empirical values were obtained by dividing triglyceride radioactivity by protein level, with correction for experimental errors between test groups.

DGAT [2] = assay: Assay for inhibitory activity against DGAT ([14C]triacylglycerol formation, rat microsomal protein); type: biochemical; conditions: rat microsomal protein as enzyme source
Description: The derivatives of Chemical Formula 1 in accordance with the present invention are found to inhibit the enzymatic activity of DGAT at a dose-dependent manner (refer to Table 2 and FIG. 1) as measured in a test in which [^14C]triacylglycerol was quantitatively analyzed after enzymatic reaction between 1,2-diacylglycerol and [^14C]palmitoyl-CoA, with microsomal proteins from rats serving as an enzyme source (refer to Example 1).
After enzymatic reaction between two substrates 1,2-diacylglycerol (Sigma, D0138) and [^14C]palmitoyl-CoA (Amersham, CFA583) with the microsomal protein of rat serving as an enzyme source in accordance with Coleman et al, Methods Enzymol., 98-103, 1992, the resulting product [^14C] triacylglycerol was measured for radioactivity. In detail, to a reaction buffer (175 mM Tris-HCl, pH 8.0, 20 μl bovine serum albumin (10 mg/ml), 100 mM MgCl2, 30 μM [^14C] palmitoyl-CoA (0.02 μCi, Amersham) and 200 μM 1,2-dioleoyl glycerol) was added 10 μl of a solution of the samples in dimethylsulfoxide (DMSO) and then 100˜200 μl of an isolated microsomal protein, followed by reaction at 25° C. for 10 min. The reaction was terminated with 1.5 ml of a mixture of 80:20:2 2-propanol:heptane:water (v:v:v). Thereafter, the [^14C] triacylglycerol thus formed was separated. In this regard, 1 ml of heptane and 0.5 ml of distilled water were added to the reaction mixture, which was then shaken. 1 ml of the supernatant thus formed was mixed with 2 ml of an alkaline ethanol solution (ethanol:0.5 N sodium hydroxide:water=50:10:40, v:v:v), followed by shaking. After being taken, 0.65 ml of the supernatant thus formed was measured for radioactivity using an LSC (liquid scintillation counter). The inhibitory activity against DGAT was calculated according to the following Mathematical Formula 1. The inhibitory effects of the benzazole derivatives on DGAT are summarized in Table 2, below while % DGAT inhibition is plotted against doses of compound 22 and 31 in FIG. 1.
T: Cpm of a test group in which a sample was added to an enzymatic buffer,
C: Cpm of a control in which no samples were added to an enzymatic buffer,
B: Cpm of a control in which a sample was added in the absence of any enzyme source.

[3] = system: ICR mice fed a high-fat diet; assay: In vivo assay for anti-obesity activity in mice fed a high-fat diet; set-up: species or system mouse; conditions: high-fat diet
Procedure: Also, the derivatives of Chemical Formula 1 were tested for resistance to obesity by iterative oral administration at a dose of 10 mg/kg into ICR male mice (refer to Example 3). […] When they were administered, the levels of total triglycerides, total cholesterols, and low density lipoprotein (LDL)-cholesterol in the blood recovered to almost normal levels, with a significant increase observed in the level of high density lipoprotein (HDL)-cholesterol in the blood (refer to Tables 6 and 7 and FIGS. 3 and 4).
In order to verify the anti-obesity activity of the benzaldehyde derivatives of Chemical Formula 1 in accordance with the present invention, Compounds 22 and 31 were administered repetitively into rodents as follows.
The experimental animals were 6 week old ICR mice which were purchased from Japan SLC, Inc. via Central Lab. Animal Inc. Korea. They were acclimated to a new environment for one week before use, and fed with a foodstuff commercially available from Deyts, U.S.A. They were bred in an animal lab set at a temperature of 23±3° C. and RH 50±10% under light of 150˜300 Lux for a period of 12 hours (6 a.m.˜6 p.m.) with ventilation 10-20 times/hour. All of the 12 mice used were male, and were organized into two groups of 6. The test group was orally administered once a day at 4 p.m. with 10 mg/kg of the compound (Chemical Formula 1) in the form of a solution in biological saline for 35 days while the control was administered with biological saline only. Xenical, a commercially available lipase inhibitor, was administered orally at a dose of 10 mg/kg once a day as a positive control drug.
The animals were measured for body weight every week and sacrificed on Day 35, after which blood from the heart was sampled. Abdominal fat, epididymal fat, retroperitoneal fat and the liver were excised and weighed. Blood samples were assayed for total triglyceride, total cholesterol, HDL-cholesterol and LDL-cholesterol using respective test kits, all commercially available from Asan Pharmaceutical Co. Ltd., Korea.
For evidence of anti-obesity activity, compounds 22 and 31 were orally administered at regular intervals at a dose of 10 mg/kg into ICR male mice for a predetermined period of time with the concurrent provision of conditional diets thereto. Anatomized abdomens of the animals are given in the photographs of FIG. 2.

[4] = Day 35, 10 mg/kg oral, Mean ± SD
[5] = blood, Day 35, 10 mg/kg oral, Mean ± SD

Structure (SMILES): CN(C)C(=O)c1ccc2nc(COc3ccc(C45CC6CC(CC(C6)C4)C5)cc3)[nH]c2c1 [Cpd. 30, 2-(4-adamantan-1-yl-phenoxymethyl)-3H-benzoimidazole-5-carboxylic acid dimethylamide]
- Production Yield of Triglyceride (%) (DGAT [1]): 87.2 ± 7.4%
- DGAT (% inhibition in 5 μM) (DGAT [2]): 8.0%
- DGAT (% inhibition in 25 μM) (DGAT [2]): 41.8%

Structure (SMILES): O=C(NCCN1CCCCC1)c1ccc2oc(COc3ccc(C45CC6CC(CC(C6)C4)C5)cc3)nc2c1 [Cpd. 24, 2-(4-adamantan-1-yl-phenoxymethyl)-benzoxazole-5-carboxylic acid (2-piperidin-1-yl-ethyl)-amide]
- Production Yield of Triglyceride (%) (DGAT [1]): 78.5 ± 6.2%
- DGAT (% inhibition in 25 μM) (DGAT [2]): 52.84%

Structure (SMILES): O=C(NCCCN1CCOCC1)c1ccc2oc(COc3ccc(C45CC6CC(CC(C6)C4)C5)cc3)nc2c1 [Cpd. 25, 2-(4-adamantan-1-yl-phenoxymethyl)-benzoxazole-5-carboxylic acid (3-morpholin-4-yl-propyl)-amide]
- Production Yield of Triglyceride (%) (DGAT [1]): 80.2 ± 7.8%
- DGAT (% inhibition in 25 μM) (DGAT [2]): 54.08%

Structure (SMILES): O=C(NCc1ccco1)c1ccc2oc(COc3ccc(Cl)cc3Cl)nc2c1 [Cpd. 26, 2-(2,4-dichloro-phenoxymethyl)-benzoxazole-5-carboxylic acid (furan-2-ylmethyl)-amide]
- Production Yield of Triglyceride (%) (DGAT [1]): 91.5 ± 5.2%
- DGAT (% inhibition in 25 μM) (DGAT [2]): 19.75%

Structure (SMILES): O=C(NCc1ccco1)c1ccc2[nH]c(COc3ccc(C45CC6CC(CC(C6)C4)C5)cc3)nc2c1 [Cpd. 31, 2-(4-adamantan-1-yl-phenoxymethyl)-1H-benzoimidazole-5-carboxylic acid (furan-2-ylmethyl)-amide]
- (Tissue Weight/Body Weight) × 100 Abdominal Fat + Epididymal Fat [3, 4]: 3.16 ± 0.84
- (Tissue Weight/Body Weight) × 100 Liver [3, 4]: 4.48 ± 0.33
- (Tissue Weight/Body Weight) × 100 Retroperitoneal Fat [3, 4]: 0.94 ± 0.24
- (Tissue Weight/Body Weight) × 100 Total Fat [3, 4]: 4.1 ± 1.03
- HDL-Cholesterol [3, 5]: 21.22 ± 2.19 mg/dL
- LDL-Cholesterol [3, 5]: 43.62 ± 10.06 mg/dL
- Total Cholesterol [3, 5]: 73.19 ± 10.97 mg/dL
- Total Triglyceride [3, 5]: 41.79 ± 9.26 mg/dL
- inhibition of body weight gain ([3]; 10 mg/kg oral once a day for 35 days): 73%
- Body Weight (g) (Mean ± SD) Week 0 ([3]; 10 mg/kg oral once a day, Week 0): 25.08 ± 0.99 g
- Body Weight (g) (Mean ± SD) Week 1 ([3]; 10 mg/kg oral once a day, Week 1): 35.1 ± 1.99 g
- Body Weight (g) (Mean ± SD) Week 2 ([3]; 10 mg/kg oral once a day, Week 2): 38.93 ± 2.33 g
- Body Weight (g) (Mean ± SD) Week 3 ([3]; 10 mg/kg oral once a day, Week 3): 40.75 ± 1.75 g
- Body Weight (g) (Mean ± SD) Week 4 ([3]; 10 mg/kg oral once a day, Week 4): 42.31 ± 1.57 g
- Body Weight (g) (Mean ± SD) Week 5 ([3]; 10 mg/kg oral once a day, Week 5): 43.22 ± 1.41 g
- inhibition of the biosynthesis of triglycerides (DGAT [1]; 10 μM): 42.2%
- Production Yield of Triglyceride (%) (DGAT [1]): 57.8 ± 5.3%
- DGAT (% inhibition in 5 μM) (DGAT [2]): 62.5%
- DGAT (% inhibition in 25 μM) (DGAT [2]): 85.4%

Structure (SMILES): COC(=O)c1ccc2[nH]c(COc3ccc(C(C)(C)C)cc3C(C)(C)C)nc2c1 [Cpd. 8, 2-(2,4-tert-butyl-phenoxymethyl)-1H-benzoimidazole-5-carboxylic acid methyl ester]
- Production Yield of Triglyceride (%) (DGAT [1]): 88.5 ± 5.8%
- DGAT (% inhibition in 25 μM) (DGAT [2]): 37.36%

Structure (SMILES): COC(=O)c1ccc2[nH]c(COc3ccc(C45CC6CC(CC(C6)C4)C5)cc3)nc2c1 [Cpd. 4, 2-(4-adamantan-1-yl-phenoxymethyl)-1H-benzoimidazole-5-carboxylic acid methyl ester]
- Production Yield of Triglyceride (%) (DGAT [1]): 72.2 ± 7.5%
- DGAT (% inhibition in 25 μM) (DGAT [2]): 60.43%

Structure (SMILES): O=C(NCCCn1ccnc1)c1ccc2[nH]c(COc3ccc(C45CC6CC(CC(C6)C4)C5)cc3)nc2c1 [compound 33, 2-(4-adamantan-1-yl-phenoxymethyl)-1H-benzoimidazole-5-carboxylic acid (3-imidazol-1-yl-propyl)-amide]
- DGAT (% inhibition in 25 μM) (DGAT [2]): 16.99%

Structure (SMILES): NNC(=O)c1ccc2[nH]c(COc3ccc(Cl)cc3Cl)nc2c1 [compound 34, 2-(2,4-dichloro-phenoxymethyl)-1H-benzoimidazole-5-carboxylic acid hydrazide]
- DGAT (% inhibition in 25 μM) (DGAT [2]): 6.74%

Structure (SMILES): O=C(O)c1ccc2nc(COc3ccc(Cl)cc3Cl)oc2c1 [compound 15, 2-(2,4-dichloro-phenoxymethyl)-benzoxazole-6-carboxylic acid]
- DGAT (% inhibition in 25 μM) (DGAT [2]): −13.03%
